# Patent US9120762B2, “Salts of bicyclo-substituted pyrazolon azo derivatives, preparation method and use thereof” (Jiangsu Hengrui Medicine Co., Ltd., priority 2009, dated 2015)
# Read-outs that look alike come from different tables or passages of the source.
# Tests used:
# [1] = Solubility assay in water, 0.1% hydrochloric acid and methanol; format: physicochemical; conditions: read-out: solubility
# Procedure, shortened: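 Solubility was classed by the solvent volume needed to dissolve 1 g (mL) of solute, from "very soluble" (<1 mL) to "practically insoluble" (not fully dissolved in 10000 mL).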
# human TPOR = biological target: T1, human TPOR (Homo sapiens, UniProt P40238); assay: Proliferation effect on BAF3-TPOR cell (CCK-8); format: cell-based; conditions: rate relative to rhTPO positive control
# T1 construct: host or cells: BaF3 (murine pro-B cells), stably transfected, G418-selected
# T1 sequence (P40238 26-635): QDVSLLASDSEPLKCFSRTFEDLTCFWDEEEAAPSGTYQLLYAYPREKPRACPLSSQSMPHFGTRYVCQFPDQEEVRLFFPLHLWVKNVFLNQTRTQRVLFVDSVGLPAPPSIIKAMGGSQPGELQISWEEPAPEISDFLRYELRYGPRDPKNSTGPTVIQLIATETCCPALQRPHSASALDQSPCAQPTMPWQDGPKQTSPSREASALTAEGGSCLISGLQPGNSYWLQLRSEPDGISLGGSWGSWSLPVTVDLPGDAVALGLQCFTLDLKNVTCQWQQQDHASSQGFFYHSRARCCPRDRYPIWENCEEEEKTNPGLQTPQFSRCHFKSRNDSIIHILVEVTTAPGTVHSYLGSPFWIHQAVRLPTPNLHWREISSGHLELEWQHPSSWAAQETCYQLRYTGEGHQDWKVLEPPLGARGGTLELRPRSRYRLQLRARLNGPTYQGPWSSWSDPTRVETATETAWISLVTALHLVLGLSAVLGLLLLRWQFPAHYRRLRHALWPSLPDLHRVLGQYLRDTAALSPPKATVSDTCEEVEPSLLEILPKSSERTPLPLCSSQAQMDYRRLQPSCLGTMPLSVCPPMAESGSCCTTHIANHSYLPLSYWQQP
# Procedure, shortened: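 BaF3 cells stably expressing dual-site-mutated human TPOR were washed free of IL-3 and plated at 100,000 cells/mL with test solutions of 0.001–30 μM, then incubated 24 h at 37 °C. After a further 24 h with CCK-8, OD450 was read. Proliferation = (S−B)/(P−B) against a rhTPO control, fitted for EC50.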
# [2] = 0.1% hydrochloric acid, simulated gastric fluid, 0.1% hydrochloric acid
SMILES,"solubility [1, 2] [µg/mL]","solubility ([1]; methanol, organic solvent or mixture, methanol) [µg/mL]",solubility ([1]; water) [µg/mL],EC50 (human TPOR) [nM]
"CC1=NN(c2ccc3c(c2)CCCC3)C(=O)/C1=N\Nc1cccc(-c2ccc(C(=O)O)o2)c1O.NCCO.NCCO [Example 7, (Z)-5-(2-hydroxy-3-{N′-[3-methyl-5-oxo-1-(5,6,7,8-tetrahydro-naphthalen-2-yl)-1,5-dihydro-pyrazol-4-ylidene]-hydrazino}-phenyl)-furan-2-carboxylic acid bis-(ethanolamine)]",29,22400,3960,19
"CC1=NN(c2ccc3c(c2)CCCC3)C(=O)/C1=N\Nc1cccc(-c2ccc(C(=O)O)o2)c1O [Example 8, (Z)-5-(2-hydroxy-3-{N′-[3-methyl-5-oxo-1-(5,6,7,8-tetrahydro-naphthalen-2-yl)-1,5-dihydro-pyrazol-4-ylidene]-hydrazino}-phenyl)-furan-2-carboxylic acid bis-(choline)]",< 1,,,4.4
"CC1=NN(c2ccc3c(c2)CCCC3)C(=O)/C1=N\Nc1cccc(-c2ccc(C(=O)O)o2)c1O [Example 12, (Z)-5-(2-hydroxy-3-{N′-[3-methyl-5-oxo-1-(5,6,7,8-tetrahydro-naphthalen-2-yl)-1,5-dihydro-pyrazol-4-ylidene]-hydrazino}-phenyl)-furan-2-carboxylic acid bis-(trometamol)]",,,,14
